# Source: patent US11292807B2 (OCEANS LTD., priority 2015, dated 2022)
# Where two headings read alike, the source gives them in different places.
# What was measured:
# MDA-MB [1] = details: for Fold change in viability AVG / MDA-MB AVG: MDA-MB; for Average cell viability: human, 72 h
# A549 (lung carcinoma) = experiment: CIMA assay (colorimetric indicator of metabolic activity), cell viability, A549; details: for Average cell viability: unit assumed
# [2] = system: U373 (glioblastoma-astrocytoma); experiment: CIMA assay, cell viability, U373
# Protocol: Stock solutions of the extracts were prepared in dimethylsulfoxide (DMSO) at 10 mg/mL and stored in 200 μl aliquots at −20° C. until analysis. This preparation ensured that the DMSO delivered to cells in culture never exceeded 1%.
# Prepared extracts were assessed following chronic exposure conditions in which cells were seeded at 2×10^3 cells/well (96 well-plate) and incubated with test compounds for 72 h. Each compound was evaluated over a range of concentrations (0, 10, 25, 50 or 100 μg/ml). Cell proliferation was initially assessed using a standard colorimetric indicator of metabolic activity (CIMA) assay. In this assay, tetrazole reduction was evaluated as a measure of metabolic function that evaluates mitochondrial activity to determine the extent of cell proliferation within a culture. This assay is based on the reduction of yellow tetrazolium salt to purple formazan by mitochondrial reductases enzyme in viable cells, resulting in a color changed that confers a change in absorbance.
# MDA-MB [3] = experiment: cells; details: Homo sapiens, read-out: Average cell viability, MDA-MB
# [4] = A549, 1 ug/mL, listed as 174-13-14-3
# [5] = A549, 10 ug/mL, listed as 169-14-15-4
# [6] = A549, 10 ug/mL, listed as 174-13-14-3
# [7] = A549, 50 ug/mL, listed as 169-14-15-4
# [8] = A549, 50 ug/mL, listed as 174-13-14-3
# [9] = A549, 100 ug/mL, listed as 169-14-15-4
# [10] = A549, 100 ug/mL, listed as 174-13-14-3
# [11] = U373, 1 ug/mL, listed as 169-14-15-4
# [12] = U373, 1 ug/mL, listed as 174-13-14-3
# [13] = U373, 10 ug/mL, listed as 169-14-15-4
# [14] = U373, 10 ug/mL, listed as 174-13-14-3
# [15] = U373, 50 ug/mL, listed as 169-14-15-4
# [16] = U373, 50 ug/mL, listed as 174-13-14-3
structure (smiles),measurement,setting,value
"CC/C=C\C/C=C\C/C=C\C/C=C\C/C=C\CCCC(=O)OCC(COC1OC(CO)C(O)C(O)C1O)OC(=O)CCCCCCCCCCCCCCC (stereo not shown) [Compound 2, MGDG C20:5/C16:0]",Fold change in viability AVG,"MDA-MB [1]; 1 ug/mL, listed as 169-14-15-4",1.09
same,Fold change in viability AVG,"MDA-MB [1]; 1 ug/mL, listed as 174-13-14-3",1.11
same,Fold change in viability AVG,"MDA-MB [1]; 10 ug/mL, listed as 169-14-15-4",1.09
same,Fold change in viability AVG,"MDA-MB [1]; 10 ug/mL, listed as 174-13-14-3",0.90
same,Fold change in viability AVG,"MDA-MB [1]; 50 ug/mL, listed as 169-14-15-4",0.49
same,Fold change in viability AVG,"MDA-MB [1]; 50 ug/mL, listed as 174-13-14-3",0.23
same,Fold change in viability AVG,"MDA-MB [1]; 100 ug/mL, listed as 169-14-15-4",0.24
same,Fold change in viability AVG,"MDA-MB [1]; 100 ug/mL, listed as 174-13-14-3",0.22
same,MDA-MB AVG,"MDA-MB [1]; sample at 1 ug/mL, listed as 169-14-15-4",1.09
same,MDA-MB AVG,"MDA-MB [1]; sample at 1 ug/mL, listed as 174-13-14-3",1.11
same,MDA-MB AVG,"MDA-MB [1]; sample at 10 ug/mL, listed as 169-14-15-4",1.09
same,MDA-MB AVG,"MDA-MB [1]; sample at 10 ug/mL, listed as 174-13-14-3",0.90
same,MDA-MB AVG,"MDA-MB [1]; sample at 50 ug/mL, listed as 169-14-15-4",0.49
same,MDA-MB AVG,"MDA-MB [1]; sample at 50 ug/mL, listed as 174-13-14-3",0.23
same,MDA-MB AVG,"MDA-MB [1]; sample at 100 ug/mL, listed as 169-14-15-4",0.24
same,MDA-MB AVG,"MDA-MB [1]; sample at 100 ug/mL, listed as 174-13-14-3",0.22
same,Average cell viability,MDA-MB [1]; 1 ug/mL,102%
same,Average cell viability,MDA-MB [1]; 10 ug/mL,83%
same,Average cell viability,MDA-MB [1]; 100 ug/mL,20%
same,Fold change in viability AVG,"A549 (lung carcinoma); A549, 1 ug/mL, listed as 169-14-15-4",1.19
same,Fold change in viability AVG,A549 (lung carcinoma); [4],1.12
same,Average cell viability,A549 (lung carcinoma); [4],96%
same,Fold change in viability AVG,A549 (lung carcinoma); [5],1.14
same,Average cell viability,A549 (lung carcinoma); [5],98%
same,Fold change in viability AVG,A549 (lung carcinoma); [6],0.60
same,Average cell viability,A549 (lung carcinoma); [6],52%
same,Fold change in viability AVG,A549 (lung carcinoma); [7],0.98
same,Average cell viability,A549 (lung carcinoma); [7],84%
same,Fold change in viability AVG,A549 (lung carcinoma); [8],0.60
same,Average cell viability,A549 (lung carcinoma); [8],51%
same,Fold change in viability AVG,A549 (lung carcinoma); [9],0.74
same,Average cell viability,A549 (lung carcinoma); [9],64%
same,Fold change in viability AVG,A549 (lung carcinoma); [10],0.41
same,Average cell viability,A549 (lung carcinoma); [10],35%
same,A549 AVG,"A549 (lung carcinoma); A549, sample at 1 ug/mL, listed as 169-14-15-4",1.19
same,A549 AVG,"A549 (lung carcinoma); A549, sample at 1 ug/mL, listed as 174-13-14-3",1.12
same,A549 AVG,"A549 (lung carcinoma); A549, sample at 10 ug/mL, listed as 169-14-15-4",1.14
same,A549 AVG,"A549 (lung carcinoma); A549, sample at 10 ug/mL, listed as 174-13-14-3",0.60
same,A549 AVG,"A549 (lung carcinoma); A549, sample at 50 ug/mL, listed as 169-14-15-4",0.98
same,A549 AVG,"A549 (lung carcinoma); A549, sample at 50 ug/mL, listed as 174-13-14-3",0.60
same,A549 AVG,"A549 (lung carcinoma); A549, sample at 100 ug/mL, listed as 169-14-15-4",0.74
same,A549 AVG,"A549 (lung carcinoma); A549, sample at 100 ug/mL, listed as 174-13-14-3",0.41
same,viability at 1 µg/mL,"A549 (lung carcinoma); Homo sapiens, A549, read-out: Average cell viability, A549, 1 ug/mL",102%
same,viability at 100 µg/mL,"[2]; Homo sapiens, U373 MG, read-out: Average cell viability, U373, 100 ug/mL",8%
same,Average cell viability,[2]; [11],106%
same,Fold change in viability AVG,[2]; [11],1.08
same,Average cell viability,[2]; [12],85%
same,Fold change in viability AVG,[2]; [12],0.86
same,Average cell viability,[2]; [13],94%
same,Fold change in viability AVG,[2]; [13],0.95
same,Average cell viability,[2]; [14],73%
same,Fold change in viability AVG,[2]; [14],0.74
same,Average cell viability,[2]; [15],30%
same,Fold change in viability AVG,[2]; [15],0.30
same,Average cell viability,[2]; [16],13%
same,Fold change in viability AVG,[2]; [16],0.13
same,U373 AVG,"[2]; U373, sample at 1 ug/mL, listed as 169-14-15-4",1.08
same,U373 AVG,"[2]; U373, sample at 1 ug/mL, listed as 174-13-14-3",0.86
same,U373 AVG,"[2]; U373, sample at 10 ug/mL, listed as 169-14-15-4",0.95
same,U373 AVG,"[2]; U373, sample at 10 ug/mL, listed as 174-13-14-3",0.74
same,U373 AVG,"[2]; U373, sample at 50 ug/mL, listed as 169-14-15-4",0.30
same,U373 AVG,"[2]; U373, sample at 50 ug/mL, listed as 174-13-14-3",0.13
same,U373 AVG,"[2]; U373, sample at 100 ug/mL",0.08
same,Fold change in viability AVG,"[2]; U373, 100 ug/mL",0.08
same,viability at 1 µg/mL,MDA-MB [3]; 1 ug/mL,100%
same,viability at 10 µg/mL,MDA-MB [3]; 10 ug/mL,101%
same,viability at 100 µg/mL,MDA-MB [3]; 100 ug/mL,22%
